Measurements published in patent US20240124503A1, “HETEROAROMATIC PHOSPHONIUM SALTS AND THEIR USE TREATING CANCER” (FLORATEK PHARMA S.A., priority 2021, published 2024).

How the values were obtained:
KIT(D816V) = target: T1, KIT(D816V) (Homo sapiens, UniProt P10721, D816V); assay: KINOMEscan competition binding, KIT(D816V)
T1 construct: purchased Eurofins (KINOMEscan); host or cells: E. coli BL21-derived host (T7 phage) or HEK-293
Protocol: Selected compounds were screened for kinase inhibition using the KINOMEscan™ assay (Eurofins) which is based on a competition binding assay that quantitatively measures the ability of a compound to compete with an immobilized, active-site directed ligand. The assay was performed by combining three components: DNA-tagged kinase; immobilized ligand; and the test compound. The ability of the test compound to compete with the immobilized ligand was measured via quantitative PCR of the DNA tag.
Kinase-tagged T7 phage strains were prepared in an E. coli host derived from the BL21 strain. E. coli were grown to log-phase and infected with T7 phage and incubated with shaking at 32° C. until lysis. The lysates were centrifuged and filtered to remove cell debris. The remaining kinases were produced in HEK-293 cells and subsequently tagged with DNA for qPCR detection. Streptavidin-coated magnetic beads were treated with biotinylated small molecule ligands for 30 minutes at room temperature to generate affinity resins for kinase assays. […] Kds were determined using an 11-point 3-fold compound dilution series with three DMSO control points. […] The kinase concentration in the eluates was measured by qPCR. […]
Binding constants (Kds) were calculated with a standard dose-response curve using the Hill equation: Response=Background+[Signal−Background/1+(Kd^Hill Slope/Dose^Hill Slope)] […]

colon PDX = assay: Cell viability, colon PDX (panel statement); type: cell-based; conditions: text summary of Table 7; read-out: IC50, growth of colon PDX
Protocol: PDX-derived cell cultures were obtained from tumors explanted from mice and isolated by mechanical and enzymatic dissociation. […] Cells were harvested and seeded in 96-wells plates at a density of 1.25 to 5×10^3 cells/well for cytotoxicity assays. Cells were incubated 48 h at 37° C. prior to addition of test molecules and vehicle (DMSO, 0.1%) at desired final concentrations. Cell viability was assessed before drugs' addition (To) and 5 days after test molecules addition by measuring ATP cell content using CellTiter-Glo® Luminescent Cell Viability Assay (Promega) according to the manufacturer's instructions. Luciferase activity was measured on a luminometer (PerkinElmer® EnVision™). Each concentration of compounds was tested in triplicate.
Viability was calculated as a percentage of ATP value compared to vehicle treated controls.
For PDX primary cell cultures, the tumour tissue was washed with PBS containing antibiotic-antimycotic and non-tumour tissue and necrotic tumour tissues were separated. The tumour tissue was transferred to a new dish and cut into 1˜2 mm^3 fragments, resuspended in RPMI-1640 medium and centrifuged at 1,200 rpm for 6 min at room temperature. The pelleted material was resuspended with 15 mL of Tumour Cell Digestion Solution and incubated at 37° C. for 1 hour with agitation. […]

T1 sequence (P10721 26-976 D816V): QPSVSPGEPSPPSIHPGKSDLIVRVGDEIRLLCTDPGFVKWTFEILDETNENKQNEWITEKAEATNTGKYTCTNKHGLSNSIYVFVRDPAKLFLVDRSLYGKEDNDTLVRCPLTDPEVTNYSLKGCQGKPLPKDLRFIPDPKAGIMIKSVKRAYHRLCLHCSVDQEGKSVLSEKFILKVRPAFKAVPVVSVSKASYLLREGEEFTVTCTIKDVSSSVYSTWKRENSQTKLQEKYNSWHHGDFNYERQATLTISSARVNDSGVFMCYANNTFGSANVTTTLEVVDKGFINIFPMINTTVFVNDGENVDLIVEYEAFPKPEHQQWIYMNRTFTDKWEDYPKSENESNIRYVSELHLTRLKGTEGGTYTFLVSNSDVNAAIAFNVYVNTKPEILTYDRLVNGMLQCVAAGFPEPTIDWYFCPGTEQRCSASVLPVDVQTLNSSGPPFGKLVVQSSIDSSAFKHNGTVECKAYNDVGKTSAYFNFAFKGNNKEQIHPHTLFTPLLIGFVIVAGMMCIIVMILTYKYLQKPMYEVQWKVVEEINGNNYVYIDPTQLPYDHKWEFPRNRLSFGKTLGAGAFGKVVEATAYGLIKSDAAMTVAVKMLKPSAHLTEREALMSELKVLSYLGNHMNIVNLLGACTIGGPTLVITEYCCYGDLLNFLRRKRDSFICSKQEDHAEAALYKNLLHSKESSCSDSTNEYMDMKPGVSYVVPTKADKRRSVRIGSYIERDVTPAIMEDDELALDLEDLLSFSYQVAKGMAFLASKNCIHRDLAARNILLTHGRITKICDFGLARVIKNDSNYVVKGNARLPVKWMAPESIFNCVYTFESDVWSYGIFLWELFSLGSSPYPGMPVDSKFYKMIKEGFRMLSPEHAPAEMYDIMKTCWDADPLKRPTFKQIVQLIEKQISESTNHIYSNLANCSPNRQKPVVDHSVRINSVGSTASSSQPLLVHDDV

**Q.** `COc1c(O)ccc2c(=O)c(O)c(-c3ccc(CCCC[P+](c4ccccc4)(c4ccccc4)c4ccccc4)cc3)oc12` [SND190, (4-(4-(3,7-Dihydroxy-8-methoxy-4-oxo-4H1-chromen-2-yl)phenyl)butyl)triphenylphosphonium bromide] was tested. Which Kd (KIT(D816V)) did it give?
**A.** The Kd was 930 nM.

**Q.** And the IC50 (colon PDX)?
**A.** Its IC50 is less than 20000 nM.
